In PubChem BioAssay AID1963831 (Molecular Pharmacology Branch, DTP, NCI, 2024):
Values belong to the compound of their own block, whether it stands above or below them.

Tested on: 889142-216-R-J1-PDC complex spheroid viability
Assay: Anticancer human tumor 889142-216-R-J1-PDC patient-derived bladder carcinoma cell line growth inhibition [POLQ]
Conditions: for IC50: curve of first compound; for viability, T/C: stronger effect = lower value
In short: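 PDC + HUVEC + MSC complex spheroids; POLQ inhibitors ± partner drugs; top conc. at/near clinical Cmax, else 10 microM (SN-38 1 microM), half-log dilutions; 37 degrees C, 5% CO2.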

[1] = second compound 0.0316 µM, first compound 0.00316 µM
[2] = second compound 0.0316 µM, first compound 0.01 µM
[3] = second compound 0.0316 µM, first compound 0.0316 µM
[4] = second compound 0.0316 µM, first compound 0.1 µM
[5] = second compound 0.0316 µM, first compound 0.316 µM
[6] = second compound 0.0316 µM, first compound 1 µM
[7] = second compound 0.1 µM, first compound 0.00316 µM
[8] = second compound 0.1 µM, first compound 0.01 µM
[9] = second compound 0.1 µM, first compound 0.0316 µM
[10] = second compound 0.1 µM, first compound 0.1 µM
[11] = second compound 0.1 µM, first compound 0.316 µM
[12] = second compound 0.1 µM, first compound 1 µM
[13] = second compound 0.316 µM, first compound 0.00316 µM
[14] = second compound 0.316 µM, first compound 0.01 µM
[15] = second compound 0.316 µM, first compound 0.0316 µM
[16] = second compound 0.316 µM, first compound 0.1 µM
[17] = second compound 0.316 µM, first compound 0.316 µM
[18] = second compound 0.316 µM, first compound 1 µM
[19] = second compound 1 µM, first compound 0.00316 µM
[20] = second compound 1 µM, first compound 0.01 µM
[21] = second compound 1 µM, first compound 0.0316 µM
[22] = second compound 1 µM, first compound 0.1 µM
[23] = second compound 1 µM, first compound 0.316 µM
[24] = second compound 1 µM, first compound 1 µM
[25] = second compound 3.16 µM, first compound 0.00316 µM
[26] = second compound 3.16 µM, first compound 0.01 µM
[27] = second compound 3.16 µM, first compound 0.0316 µM
[28] = second compound 3.16 µM, first compound 0.1 µM
[29] = second compound 3.16 µM, first compound 0.316 µM
[30] = second compound 3.16 µM, first compound 1 µM
[31] = second compound 10 µM, first compound 0.00316 µM
[32] = second compound 10 µM, first compound 0.01 µM
[33] = second compound 10 µM, first compound 0.0316 µM
[34] = second compound 10 µM, first compound 0.1 µM
[35] = second compound 10 µM, first compound 0.316 µM
[36] = second compound 10 µM, first compound 1 µM
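Also: spheroids exposed to compounds for seven days.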
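For viability, T/C in this document: 100% = DMSO vehicle control viability.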

SMILES: C=CCn1c(=O)c2cnc(Nc3ccc(N4CCN(C)CC4)cc3)nc2n1-c1cccc(C(C)(C)O)n1 + Cc1cccc(N(C)C(=O)C2C(O)CCN2c2nc(C)cc(C(F)(F)F)c2C#N)c1
IC50 (second compound 0.0316 µM): > 1 µM
IC50 (second compound 0.1 µM): > 1 µM
IC50 (second compound 0.316 µM): > 1 µM
IC50 (second compound 1 µM): > 1 µM
IC50 (second compound 3.16 µM): > 1 µM
IC50 (second compound 10 µM): > 1 µM
viability, T/C [1]: 113%
viability, T/C [2]: 93.8%
viability, T/C [3]: 103%
viability, T/C [4]: 101%
viability, T/C [5]: 90%
viability, T/C [6]: 55.5%
viability, T/C [7]: 99.3%
viability, T/C [8]: 115%
viability, T/C [9]: 104%
viability, T/C [10]: 90.1%
viability, T/C [11]: 106%
viability, T/C [12]: 54.4%
viability, T/C [13]: 129%
viability, T/C [14]: 89.5%
viability, T/C [15]: 99.2%
viability, T/C [16]: 95.8%
viability, T/C [17]: 75%
viability, T/C [18]: 69.3%
viability, T/C [19]: 118%
viability, T/C [20]: 84.4%
viability, T/C [21]: 88.9%
viability, T/C [22]: 85.2%
viability, T/C [23]: 90.5%
viability, T/C [24]: 61.8%
viability, T/C [25]: 117%
viability, T/C [26]: 113%
viability, T/C [27]: 78.2%
viability, T/C [28]: 111%
viability, T/C [29]: 80.8%
viability, T/C [30]: 59.8%
viability, T/C [31]: 108%
viability, T/C [32]: 127%
viability, T/C [33]: 116%
viability, T/C [34]: 77%
viability, T/C [35]: 70.2%
viability, T/C [36]: 54.7%

SMILES: COc1cccc2c1C(=O)c1c(O)c3c(c(O)c1C2=O)CC(O)(C(=O)CO)CC3OC1CC(N)C(O)C(C)O1 (stereo unspecified) + Nc1ccc(C#CCN(C(=O)Cc2ncc(C(F)(F)F)cc2C(F)(F)F)c2ccc(F)cc2)nn1
IC50 (second compound 0.0316 µM): 0.338 µM
IC50 (second compound 0.1 µM): 0.339 µM
IC50 (second compound 0.316 µM): 0.254 µM
IC50 (second compound 1 µM): 0.45 µM
IC50 (second compound 3.16 µM): 0.287 µM
IC50 (second compound 10 µM): 0.318 µM
viability, T/C [3]: 55.1%
viability, T/C [4]: 78.9%
viability, T/C [5]: 52.2%
viability, T/C [6]: 6.13%
viability, T/C (second compound 0.0316 µM, first compound 3.16 µM): 0.74%
viability, T/C (second compound 0.0316 µM, first compound 10 µM): 1.95%
viability, T/C [9]: 71.8%
viability, T/C [10]: 79.8%
viability, T/C [11]: 52%
viability, T/C [12]: 9.08%
viability, T/C (second compound 0.1 µM, first compound 3.16 µM): 1.08%
viability, T/C (second compound 0.1 µM, first compound 10 µM): 1.72%
viability, T/C [15]: 66.6%
viability, T/C [16]: 76.2%
viability, T/C [17]: 44.1%
viability, T/C [18]: 8.99%
viability, T/C (second compound 0.316 µM, first compound 3.16 µM): 1.03%
viability, T/C (second compound 0.316 µM, first compound 10 µM): 1.55%
viability, T/C [21]: 77.8%
viability, T/C [22]: 75.3%
viability, T/C [23]: 68.6%
viability, T/C [24]: 7.94%
viability, T/C (second compound 1 µM, first compound 3.16 µM): 1.14%
viability, T/C (second compound 1 µM, first compound 10 µM): 2.34%
viability, T/C [27]: 66%
viability, T/C [28]: 77.7%
viability, T/C [29]: 47.9%
viability, T/C [30]: 4.28%
viability, T/C (second compound 3.16 µM, first compound 3.16 µM): 0.84%
viability, T/C (second compound 3.16 µM, first compound 10 µM): 1.58%
viability, T/C [33]: 71.5%
viability, T/C [34]: 72.3%
viability, T/C [35]: 50.2%
viability, T/C [36]: 3.75%
viability, T/C (second compound 10 µM, first compound 3.16 µM): 1.07%
viability, T/C (second compound 10 µM, first compound 10 µM): 1.08%

IC50 (second compound 0.0316 µM): > 0.1 µM
IC50 (second compound 0.1 µM): > 0.1 µM
IC50 (second compound 0.316 µM): > 0.1 µM
IC50 (second compound 1 µM): > 0.1 µM
IC50 (second compound 3.16 µM): > 0.1 µM
IC50 (second compound 10 µM): 0.0647 µM
SMILES: CC[C@@]1(O)C(=O)OCc2c1cc1n(c2=O)Cc2cc3c(CN(C)C)c(O)ccc3nc2-1 + Cc1cccc(N(C)C(=O)C2C(O)CCN2c2nc(C)cc(C(F)(F)F)c2C#N)c1
viability, T/C (second compound 0.0316 µM, first compound 0.000316 µM): 103%
viability, T/C (second compound 0.0316 µM, first compound 0.001 µM): 103%
viability, T/C [1]: 84.2%
viability, T/C [2]: 76.5%
viability, T/C [3]: 71.2%
viability, T/C [4]: 56.8%
viability, T/C (second compound 0.1 µM, first compound 0.000316 µM): 96%
viability, T/C (second compound 0.1 µM, first compound 0.001 µM): 115%
viability, T/C [7]: 109%
viability, T/C [8]: 83.7%
viability, T/C [9]: 73%
viability, T/C [10]: 58.9%
viability, T/C (second compound 0.316 µM, first compound 0.000316 µM): 97.8%
viability, T/C (second compound 0.316 µM, first compound 0.001 µM): 111%
viability, T/C [13]: 84.4%
viability, T/C [14]: 91.8%
viability, T/C [15]: 72.6%
viability, T/C [16]: 56.6%
viability, T/C (second compound 1 µM, first compound 0.000316 µM): 100%
viability, T/C (second compound 1 µM, first compound 0.001 µM): 121%
viability, T/C [19]: 93.2%
viability, T/C [20]: 82.2%
viability, T/C [21]: 56.2%
viability, T/C [22]: 61.2%
viability, T/C (second compound 3.16 µM, first compound 0.000316 µM): 118%
viability, T/C (second compound 3.16 µM, first compound 0.001 µM): 103%
viability, T/C [25]: 87.3%
viability, T/C [26]: 84%
viability, T/C [27]: 59.2%
viability, T/C [28]: 57.9%
viability, T/C (second compound 10 µM, first compound 0.000316 µM): 73.2%
viability, T/C (second compound 10 µM, first compound 0.001 µM): 104%
viability, T/C [31]: 75%
viability, T/C [32]: 68.3%
viability, T/C [33]: 52.8%
viability, T/C [34]: 48%
